Data reported in paper PMC11050532, “The Inhibition Activity of Natural Methoxyflavonoid from Inula britannica on Soluble Epoxide Hydrolase and NO Production in RAW264.7 Cells” (International Journal of Molecular Sciences, 2024).

Tests used:
sEH [1] = conditions: cited from earlier work; for inhibition mode: sEH
[2] = system: mice with angiotensin-II-induced hypertension; set-up: method as in PMID 15699457; conditions: cited from earlier work
[3] = set-up: method as in PMID 23020295; conditions: cited from earlier work
[4] = system: NO production by poly(I:C)-induced RAW264.7 cells; assay: Nitric oxide assay (Griess method); assay type: cell-based; conditions: for NO production: 10 µM compound, induced control 19.0 ± 1.5 µM, unstimulated ~0.91 µM; for inhibition at 10 µM: Mus musculus, RAW264.7, poly(I:C)-stimulated cells
Experimental: The activity of compounds 1–5 with respect to NO production by poly(I:C)-induced RAW264.7 cells was evaluated by measuring the amount of nitrite that accumulated in the culture medium using the Griess method. When tested at a concentration 10 µM, none of the compounds affected the viability of RAW264.7 cells. In unstimulated RAW264.7 cells, NO production was ~ 0.91 µM, whereas in poly(I:C)-induced cells, it was 19.0 ± 1.5 µM. In induced cells simultaneously treated with compounds 1–5 at a concentration of 10 µM, NO production was 12.5 ± 0.1, 9.6 ± 0.2, 4.0 ± 0.2, 7.0 ± 0.3, and 13.9 ± 0.8 µM, respectively (Figure 5).
RAW264.7 macrophages were initially cultured as described above and then pretreated for 2 h with 10 µM of the candidate inhibitor. Then, they were stimulated with 1 µg LPS /mL for 24 h. Then, 100 µL each of supernatant and Griess reagent were added to the plate. The absorbance at 450 nm was measured as described.

sEH [5] = biological target: T1, sEH (Homo sapiens, UniProt P34913); assay: sEH activity assay (PHOME fluorescence); assay type: biochemical; conditions: triplicate, six concentrations
T1 construct: purchased Cayman Chemical 10011669
T1 sequence (P34913 1-555): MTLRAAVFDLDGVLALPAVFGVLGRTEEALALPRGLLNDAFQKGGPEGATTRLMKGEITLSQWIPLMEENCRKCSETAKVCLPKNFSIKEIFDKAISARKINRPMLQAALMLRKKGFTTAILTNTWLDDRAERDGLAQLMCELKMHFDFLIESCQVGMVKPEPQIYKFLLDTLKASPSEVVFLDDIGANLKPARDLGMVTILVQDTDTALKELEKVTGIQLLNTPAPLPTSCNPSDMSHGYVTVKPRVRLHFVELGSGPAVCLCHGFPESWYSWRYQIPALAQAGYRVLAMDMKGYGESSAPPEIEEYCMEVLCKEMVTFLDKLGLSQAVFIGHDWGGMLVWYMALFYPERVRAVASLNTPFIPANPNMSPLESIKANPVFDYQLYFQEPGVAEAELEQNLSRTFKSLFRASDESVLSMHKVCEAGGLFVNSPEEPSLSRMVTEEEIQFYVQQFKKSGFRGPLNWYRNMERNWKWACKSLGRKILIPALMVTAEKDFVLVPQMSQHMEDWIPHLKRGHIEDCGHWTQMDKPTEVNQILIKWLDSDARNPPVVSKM
Experimental: ^1H (400 MHz) and ^13C (100 MHz) nuclear magnetic resonance (NMR) spectra were obtained using a Bruker DRX-400 spectrometer (Bruker, Billerica, MA, USA) with tetramethylsilane as the internal standard. Thin-layer chromatography (TLC) was performed on pre-coated silica gel 60 F254 (0.25 mm; Merck, Rahway, NJ, USA) and reversed-phase-18 F254s plates (0.25 mm; Merck). Column chromatography was performed using a silica gel (60 A, 70–230, or 230–400 mesh ASTM; Merck, Germany) and reversed-phase silica gel (ODS-A, S-75 μm; YMC, Kyoto, Japan). […] Greiss reagent and lipopolysaccharide (LPS) were purchased from Sigma-Aldrich (St. Louis, MO, USA). Dulbecco’s modified Eagle medium (DMEM) and fetal bovine serum were purchased from Gibco (Grand Island, NY, USA). Penicillin/streptomycin antibiotics came from Invitrogen (Carlsbad, CA, USA).
Inhibitor efficiency (%) was calculated as shown in Equation (1):Inhibitory activity = 100 − [(I4_0 − I0)/(M40 − M0)] × 100(1) where I40 and M40 are the fluorescence of the candidate inhibitor (I) and methanol (M) after 40 min, and I0 and M0 are the fluorescence of I and M at 0 min, respectively.

sEH [6] = biological target: T1, sEH; assay: sEH enzyme kinetics (Lineweaver–Burk and Dixon plots); assay type: biochemical; conditions: for Ki: calculated from the Dixon plot; for Binding Mode: substrate 3.1–50 µM, Lineweaver–Burk plot
Experimental: Determinations of enzyme kinetics yield insights into the interactions between inhibitors and enzymes. In such studies, the changes in the initial velocity (v0) of the enzymatic reaction induced by the inhibitor depending on the substrate concentration are monitored. To investigate the effects of the five flavonoids (1–5) on sEH, a substrate concentration of 3.1–50 µM was used. […] The ki values calculated from the Dixon plot were 43.9, 19.8, 17.5, 63.5, and 68.7 µM, respectively (Figure 2G–K).
In 96-well plates, 20 µL of isolated compounds […] in methanol was mixed with 100 µL of 25 mM Tris–HCl (pH 7.0) buffer containing 0.1% BSA, followed by adding 30 µL of 1.0 µg/mL sEH and then 50 µL of 40 μM PHOME. The reaction product was measured using a fluorescent photometer (excitation filter: 330 nm, emission filter: 465 nm).

arthritic rats = system: arthritic rats; set-up: method as in PMID 27177082; conditions: cited from earlier work
[7] = system: LPS-activated THP-1 cells; set-up: method as in PMID 27177082; conditions: cited from earlier work

| IC50 (sEH [5]) [µM] | Ki (sEH [6]) [µM] | Binding Mode (sEH [6]) | Structure (SMILES) | NO production [4] [µM] | further results |
| --- | --- | --- | --- | --- | --- |
| – | – | – | C=C(C)[C@@H](O)[C@@H](O)C[C@@H](C)C1=C2CC[C@H]3[C@@]4(C)CCC(=O)C(C)(C)[C@@H]4CC[C@]3(C)[C@@]2(C)CC1 [11-deoxy-25-anhydroalisol E] | – | sEH inhibition (in words) (sEH [1]): considerable inhibitory effects on sEH |
| – | – | – | O=C(O)CCCCCCCCCCCNC(=O)NC12CC3CC(CC(C3)C1)C2 [AUDA, 12-(3-adamantan-1-yl-ureido) dodecanoic acid] | – | blood pressure [2]: effective for lowering blood pressure; metabolism in vivo [3]: rapid metabolism in vivo |
| 42.6 ± 0.8 | 43.9 | non-competitive | COc1ccc(-c2oc3cc(OC)c(OC)c(O)c3c(=O)c2O)cc1O [Compound 1, eupatin] | 12.5 ± 0.1 | Binding Mode (sEH [6]; listed as eupatin): noncompetitive |
| 12.1 ± 0.1 | 17.5 | non-competitive | COc1c(O)cc2oc(-c3ccc(O)c(O)c3)c(O)c(=O)c2c1O [Compound 3, patuletin] | 4.0 ± 0.2 | TNF-α and IL-1β levels (arthritic rats): decrease TNF-α and IL-1β levels; inhibition at 10 µM [4]: > 50%; TNF-α and IL-1β levels [7]: decrease TNF-α and IL-1β levels; Binding Mode (sEH [6]; listed as patuletin): noncompetitive |
| 40.9 ± 0.6 | 63.5 | non-competitive | COc1c(O)cc2oc(-c3ccc(O)c(O)c3)cc(=O)c2c1O [Compound 4, nepetin] | 7.0 ± 0.3 | inhibition at 10 µM [4]: > 50%; Binding Mode (sEH [6]; listed as nepetin): noncompetitive |
| 62.8 ± 1.8 | 68.7 | non-competitive | COc1cc(-c2oc3cc(O)cc(O)c3c(=O)c2OC2OC(CO)C(O)C(O)C2O)ccc1O (stereo not shown) [Compound 5, isorhametin-3-O-glucoside] | 13.9 ± 0.8 | Binding Mode (sEH [6]; listed as isorhametin-3-O-glucoside): noncompetitive |
| – | – | – | COc1cc(-c2cc(=O)c3c(O)cc(O)cc3o2)ccc1O [chrysoeriol] | – | inhibition mode (sEH [1]): non-competitive |
| – | – | – | COc1cc(-c2oc3cc(O[C@@H]4O[C@H](CO)[C@@H](O)[C@H](O)[C@H]4O)cc(O)c3c(=O)c2O)ccc1O [isorhamnetin-7-O-glucopyranoside] | – | inhibition mode (sEH [1]): non-competitive |
| – | – | – | O=c1c(O)c(-c2ccc(O)cc2)oc2cc(O)cc(O)c12 [kaempferol] | – | sEH inhibition (in words) (sEH [1]): potent sEH inhibitors |
| – | – | – | O=c1cc(-c2ccc(O)c(O)c2)oc2cc(O[C@@H]3O[C@H](CO)[C@@H](O)[C@H](O)[C@H]3O)cc(O)c12 [luteolin-7-O-glucopyranoside] | – | inhibition mode (sEH [1]): non-competitive |
| – | – | – | O=c1c(O)c(-c2ccc(O)c(O)c2)oc2cc(O)cc(O)c12 [quercetin] | – | sEH inhibition (in words) (sEH [1]): potent sEH inhibitors |

| Structure (SMILES) | IC50 (sEH [5]) [µM] | Ki (sEH [6]) [µM] | Binding Mode (sEH [6]) | NO production [4] [µM] | further results |
| --- | --- | --- | --- | --- | --- |
| COc1c(O)cc2oc(-c3ccc(O)cc3)cc(=O)c2c1O [Compound 2, hispidulin] | 22.2 ± 0.3 | 19.8 | non-competitive | 9.6 ± 0.2 | Binding Mode (sEH [6]; listed as hispidulin): noncompetitive |
